Experimental data as given in patent US4393219A, “Salt of chlorhexidine” (Maruishi Pharmaceutical Co., Ltd., priority 1981, dated 1983).
Converted amounts (≈) assume the structure as drawn. Structures can show the parent of a compound that is named as a salt. Where two headings read alike, the source gives them in different places.

How the values were obtained:
[1] = prior art, cited from earlier work; for solubility in water and alcohols: water and alcohols such as methanol and ethanol, in words
[2] = system: Serratia marcescens IFO 12648; assay: Minimum inhibitory concentration, Serratia marcescens; type: cell-based; settings: S. marcescens, trypticase soy broth (BBL), heart infusion agar; for MIC: Serratia marcescens, IFO12648
Description: Serratia marcescens IFO 12648
(§1) The experiment was conducted according to the guide method which has been once revised and re-published by Japan Chemotherapy Association by using trypticase soy broth (BBL) as an incubation medium and heart infusion agar as a medium for determining susceptibility.

[3] = system: Pseudomonas aeruginosa IID 1117; assay: Minimum inhibitory concentration, Pseudomonas aeruginosa; type: cell-based; settings: trypticase soy broth (BBL), heart infusion agar; for Minimum inhibitory concentration: Ps. aeruginosa
Description: Pseudomonas aeruginosa IID 1117
as §1

[4] = system: Flavobacterium menigosepticum RIMD 0614002; assay: Minimum inhibitory concentration, Flavobacterium menigosepticum; type: cell-based; settings: trypticase soy broth (BBL), heart infusion agar; for Minimum inhibitory concentration: F. menigosepticum
Description: as §1, with “(1) Strains employed: Flavobacterium menigosepticum RIMD 0614002 (2) Method: The” for “The”

[5] = system: Proteus vulgaris IFO 3045; assay: Minimum inhibitory concentration, Proteus vulgaris; type: cell-based; settings: trypticase soy broth (BBL), heart infusion agar; for MIC: Proteus vulgaris, IFO3045, P. vulgaris
Description: Proteus vulgaris IFO 3045
as §1

[6] = system: Acinetobacter anitratus RIMD 0102002; assay: Minimum inhibitory concentration, Acinetobacter anitratus; type: cell-based; settings: trypticase soy broth (BBL), heart infusion agar; for MIC: Acinetobacter calcoaceticus, RIMD0102002, A. anitratus
Description: Acinetobacter anitratus RIMD 0102002
as §1

[7] = LD50 in mice; settings: mouse, in vivo, route not stated
[8] = Solubility; type: physicochemical; settings: in words
[9] = system: A. anitratus, F. menigosepticum, P. vulgaris, Ps. aeruginosa, S. marcescens; assay: Antibiotic activity compared with chlorhexidine digluconate (five strains together); type: cell-based
Description: as §1

Compound	solubility in water and alcohols [1]	solubility in water [1]	MIC [2] [µg/mL]	Minimum inhibitory concentration [3] [µg/mL]	Minimum inhibitory concentration [4] [µg/mL]	MIC [5] [µg/mL]	MIC [6] [µg/mL]	also measured
[H]/N=C(\N/C(=N/[H])NCCCCCCNC(=N)NC(=N)Nc1ccc(Cl)cc1)Nc1ccc(Cl)cc1 [Chlorhexidine diacetate]	sparingly soluble	1 g per 10,000 ml	–	–	–	–	–	–
[H]/N=C(\N/C(=N/[H])NCCCCCCNC(=N)NC(=N)Nc1ccc(Cl)cc1)Nc1ccc(Cl)cc1 [Chlorhexidine digluconate, chlorhexidine digluconate]	superior solubility in water and alcohols	–	125	31.3	125	250	62.5	–
[H]/N=C(\N/C(=N/[H])NCCCCCCNC(=N)NC(=N)Nc1ccc(Cl)cc1)Nc1ccc(Cl)cc1 [Chlorhexidine dihydrochloride]	sparingly soluble	1 g per 10,000 ml	–	–	–	–	–	–
[H]/N=C(\N/C(=N/[H])NCCCCCCNC(=N)NC(=N)Nc1ccc(Cl)cc1)Nc1ccc(Cl)cc1 [Chlorhexidine disulfate]	sparingly soluble	1 g per 10,000 ml	–	–	–	–	–	–
O=C1CC[C@@H](C(=O)O)N1 [Pyrrolidone-carboxylic acid, 2-Pyrrolidone-5-carboxylic acid]	–	–	4000 (≈ 31 mM)	–	–	4000 (≈ 31 mM)	4000 (≈ 31 mM)	MIC ([3]; Pseudomonas aeruginosa, IID1117, Ps. aeruginosa): 4000 µg/mL (≈ 31 mM); MIC ([4]; Flavobacterium, RIMD0614002, F. menigosepticum): 4000 µg/mL (≈ 31 mM)
[H]/N=C(\N/C(=N/[H])NCCCCCCNC(=N)NC(=N)Nc1ccc(Cl)cc1)Nc1ccc(Cl)cc1 [Salt of this invention, chlorhexidine di-2-pyrrolidone-5-carboxylate]	–	–	–	15.6	31.3	–	–	Minimum inhibitory concentration [2]: 125 µg/mL; LD50 [7]: ~2000 mg/kg; Minimum inhibitory concentration ([5]; P. vulgaris): 125 µg/mL; solubility in acetone, chloroform and ether ([8]; acetone, chloroform and ether): insoluble in acetone, chloroform and ether; solubility in water and alcohols ([8]; water and alcohols): soluble in water and alcohols; antibiotic activity [9]: more potent antibiotic activity than the known chlorhexidine digluconate; Minimum inhibitory concentration ([6]; A. anitratus): 31.3 µg/mL
